Tests used:
[1] = target: rat brain benzodiazepine receptors (3H-diazepam receptor); test: benzodiazepine receptor binding test in vitro (inhibition of specific 3H-diazepam binding to rat brain membranes); conditions: Ki = IC50/(1+C/KD), read-out: Ki (inhibitor constant, 3H-diazepam binding)
From the text: The pharmacological properties of the compounds of the present invention were first investigated by submitting them to the benzodiazepine receptor binding test in vitro.

[2] = tested on: male rats of the CFHB Wistar strain; test: conditioned avoidance test (secondary conditioned response, pole climbing); format: in vivo, rat (CFHB Wistar); conditions: intraperitoneally, doses of between about 1/30 and 1/10 of the corresponding LD50s
Experimental: (§1) Some of the compounds of the above list were also tested in vivo in those pharmacological tests thought to be predictive of anxiolytic activity in man. Classical pharmacological tests employed to confirm the antianxiety activity were the conditioned avoidance test and the antipentylenetetrazole test in mice. The conditioned avoidance test was carried out according to the method described by Cook and Weidley in Ann. N.Y. Acad. Sci. 1957, 66, 740, and subsequently modified by Maffii (J. Pharm. and Pharmacol., 1959, 11, 129-139). In this procedure a rat is placed in a chamber with a grid floor through which electric shocks may be delivered. This chamber is also equipped with a buzzer and with a wooden pole, electrically isolated, which is suspended from the top of the experimental chamber.
The animal soon learns to escape the shock by climbing the pole (unconditioned response--U.R.) and by climbing the pole in response to the buzzer alone (conditioned avoidance response--CR). After further exposure to the situation, the rat becomes conditioned and climbs the pole before the buzzer is activated; when this response becomes stable, the rat is considered to have developed a secondary conditioned response (CR2).
(§2) The drug to be studied is then administered to these long-trained animals and its deconditioning effect is evaluated. […] Moreover, the activity of some of the compounds of the present invention has been tested in the antipentylenetetrazole test in mice. The experiments have been carried out by following essentially the methodology described by Berger in J. Pharm. Exptl. Ther. 104, 468, (1952). More particularly, a fatal dose of pentylentetrazole (140 mg/kg s.c.) was administered to groups of ten mice each, 30 minutes after a selected dose of the potential anticonvulsant compound. […] Since the animals of the control group died within 30 minutes, the effectiveness of the compounds tested at each dose tested was expressed as the number of animals of the group which were still alive two hours after the administration of pentylenetetrazole, out of the total number of animals of the group (10).

[3] = tested on: mice (pentylenetetrazole-induced death); test: antipentylenetetrazole test in mice; format: in vivo; conditions: pentylenetetrazole 140 mg/kg s.c. 30 min later, alive after 2 hours
Experimental: as §1, §2

[4] = LD50 (acute toxicity, i.p.); conditions: in vivo, ip

| SMILES | Ki [1] [nM] | effect on primary conditioned and unconditioned responses (CR and U.R.) [2] | effect on secondary conditioned response (CR2) [2] | also measured |
| --- | --- | --- | --- | --- |
| COc1ccc(-c2nnc3c4ccccc4c(N(C)CCCC#N)nn23)cc1 [Example 107, 4-[[3-(4-methoxyphenyl)-1,2,4-triazolo [3,4-a]phthalazin-6-yl]methylamino]butanonitrile] | 0.565 | – | – | – |
| CC(O)CN(C)c1nn2c(-c3ccccc3)nnc2c2ccccc12 (stereo not drawn) [Example 29] | 28 | – | – | – |
| COc1ccc(-c2nnc3c4ccccc4c(N4CCCC4)nn23)cc1 [Example 47] | 3.9 | – | – | – |
| CC1(C)CN(c2nn3c(-c4ccccc4)nnc3c3ccccc23)C1 [Example 45] | 32 | without influencing the primary conditioned and the unconditioned responses (CR and U.R.) | effective in inhibiting the secondary conditioned response (CR2) | – |
| COc1ccc(-c2nnc3c4ccccc4c(N(C)CCCO)nn23)cc1 [Example 32, N-(3-hydroxypropyl)-N-methyl-3-(4-methoxyphenyl)-1,2,4-triazolo[3,4-a]phthalazin-6-amine] | 0.968 | – | – | – |
| c1ccc(-c2nnc3c4ccccc4c(N4CCCC4)nn23)cc1 [Example 27, 3-phenyl-6-(1-pyrrolidinyl)-1,2,4-triazolo[3,4-a]phthalazine] | 16 | – | – | – |
| O=C1Nc2ccc(Cl)cc2C(c2ccccc2)=NC1O (stereo not drawn) [Oxazepam, reference compound] | 5.2 | – | – | – |
| Nc1ccc(-c2nnc3c4ccccc4c(N4CCCC4)nn23)cc1 [Example 75] | 29 | – | – | – |
| CCCCCOc1ccc(-c2nnc3c4ccccc4c(OCC)nn23)cc1OC [Example 93] | – | without influencing the primary conditioned and the unconditioned responses (CR and U.R.) | effective in inhibiting the secondary conditioned response (CR2) | – |
| Fc1ccc(-c2nnc3c4ccccc4c(N4CCCC4)nn23)cc1 [Example 64] | 20 | – | – | – |
| CCN(CC)CCN1C(=O)CN=C(c2ccccc2F)c2cc(Cl)ccc21 [Flurazepam, reference compound] | 8.58 | – | – | – |
| Oc1ccc(-c2nnc3c4ccccc4c(N4CCCC4)nn23)cc1 [Example 74] | 17 | – | – | – |
| COc1ccc(-c2nnc3c4ccccc4c(N4CCC(O)C4)nn23)cc1 (stereo not drawn) [Example 79] | 2.7 | – | – | – |
| CC1CC(C)CN(c2nn3c(-c4ccccc4)nnc3c3ccccc23)C1 (stereo not drawn) [Example 73] | 210 | without influencing the primary conditioned and the unconditioned responses (CR and U.R.) | effective in inhibiting the secondary conditioned response (CR2) | – |
| CN(C)c1nn2c(-c3ccccc3)nnc2c2ccccc12 [Example 41] | 21 | – | – | – |
| CCOc1nn2c(-c3ccc(OC)cc3)nnc2c2ccccc12 [Example 101] | 2.9 | – | – | – |
| COc1ccc(-c2nnc3c4ccccc4c(N4CCCC4)nn23)cc1OC [Example 54] | – | without influencing the primary conditioned and the unconditioned responses (CR and U.R.) | effective in inhibiting the secondary conditioned response (CR2) | – |
| COc1ccc(-c2nnc3c4ccccc4c(N(C)CC(C)O)nn23)cc1 (stereo not drawn) [Example 31] | 17 | without influencing the primary conditioned and the unconditioned responses (CR and U.R.) | effective in inhibiting the secondary conditioned response (CR2) | Protected/treated ([3]; dose 10 mg/kg i.p.): 6/10; Protected/treated ([3]; dose 20 mg/kg i.p.): 9/10; LD50 [4]: ≥ 300 mg/kg |

| SMILES | Ki [1] [nM] | effect on primary conditioned and unconditioned responses (CR and U.R.) [2] | effect on secondary conditioned response (CR2) [2] | also measured |
| --- | --- | --- | --- | --- |
| c1ccc(-c2nn3cnnc3c3ccccc23)cc1 [Example 114, 6-phenyl-1,2,4-triazolo[3,4-a]phthalazine] | – | without influencing the primary conditioned and the unconditioned responses (CR and U.R.) | effective in inhibiting the secondary conditioned response (CR2) | – |
| CCOC(=O)CCCN(C)c1nn2c(-c3ccc(OC)cc3)nnc2c2ccccc12 [Example 108] | 0.524 | – | – | – |
| COCCN(CCOC)c1nn2c(-c3ccc(OC)cc3)nnc2c2ccccc12 [Example 67] | 2.7 | without influencing the primary conditioned and the unconditioned responses (CR and U.R.) | effective in inhibiting the secondary conditioned response (CR2) | Protected/treated ([3]; dose 5 mg/kg i.p.): 4/10; Protected/treated ([3]; dose 10 mg/kg i.p.): 8/10; LD50 [4]: ≥ 300 mg/kg |
| COc1ccc(-c2nnc3c4ccccc4c(OCCCCO)nn23)cc1 [Example 103, 6-(4-hydroxybutoxy)-3-(4-methoxyphenyl)-1,2,4-triazolo[3,4-a]phthalazine] | 0.427 | – | – | – |
| c1ccc(-c2nnc3c4ccccc4c(N4CCOCC4)nn23)cc1 [Example 30] | 18 | without influencing the primary conditioned and the unconditioned responses (CR and U.R.) | effective in inhibiting the secondary conditioned response (CR2) | – |
| CCOc1nn2c(-c3ccccc3)nnc2c2ccccc12 [Example 85, 6-ethoxy-3-phenyl-1,2,4-triazolo[3,4-a]phthalazine] | 7.8 | – | – | – |
| CCNc1nn2c(-c3ccccc3)nnc2c2ccccc12 [Example 36] | 48 | – | – | – |
| CCS(=O)(=O)c1nn2c(-c3ccccc3)nnc2c2ccccc12 [Example 112, 6-(ethyl-sulfonyl)-3-phenyl-1,2,4-triazolo[3,4-a]phthalazine] | 60 | without influencing the primary conditioned and the unconditioned responses (CR and U.R.) | effective in inhibiting the secondary conditioned response (CR2) | – |
| CN1CCN(c2nn3c(-c4ccccc4)nnc3c3ccccc23)CC1 [Example 44] | 57 | – | – | – |
| CCOC(=O)C1CCN(c2nn3c(-c4ccc(OC)cc4)nnc3c3ccccc23)CC1 [Example 72] | 1.5 | without influencing the primary conditioned and the unconditioned responses (CR and U.R.) | effective in inhibiting the secondary conditioned response (CR2) | – |
| CCOC(=O)CCCOc1nn2c(-c3ccc(OC)cc3)nnc2c2ccccc12 [Example 104, 4[[3-(4-methoxyphenyl)-1,2,4-triazolo[3,4-a]phthalazin-6-yl]oxy]butanoic acid ethyl ester] | 0.806 | – | – | – |
| COCCOc1nn2c(-c3ccc(OC)cc3)nnc2c2ccccc12 [Example 105, 6-(2-methoxyethoxy)-3-(4-methoxyphenyl)-1,2,4-triazolo[3,4-a]phthalazine] | 0.9 | without influencing the primary conditioned and the unconditioned responses (CR and U.R.) | effective in inhibiting the secondary conditioned response (CR2) | Protected/treated ([3]; dose 15 mg/kg i.p.): 3/10; Protected/treated ([3]; dose 25 mg/kg i.p.): 8/10; LD50 [4]: ~500 mg/kg |
| CCN(CC)c1nn2c(-c3ccccc3)nnc2c2ccccc12 [Example 42] | 57 | – | – | – |
| CCN(C)c1nn2c(-c3ccccc3)nnc2c2ccccc12 [Example 46] | 14 | – | – | – |
| CNc1nn2c(-c3ccccc3)nnc2c2ccccc12 [Example 35] | 46 | – | – | – |
| c1ccc(-c2nnc3c4ccccc4c(N4CCCCC4)nn23)cc1 [Example 43] | 16 | – | – | – |
| CC(=O)Nc1ccc(-c2nnc3c4ccccc4c(N4CCCC4)nn23)cc1 [Example 51] | 40 | – | – | – |

Source: patent publication US4788186A, “6-substituted-s-triazolo[3,4-a]phthalazine derivatives” (Gruppo Lepetit S.p.A., priority 1982, dated 1988)
